According to US20200354331A1, “ICARIIN DERIVATIVES” (H. LEE MOFFITT CANCER CENTER AND RESEARCH INSTITUTE, INC., priority 2014, published 2020):
“Also recorded” adds a separate entry of the source.

What was measured:
[1] = test system: BMNCs from three healthy donors; experiment: Colony formation (CFU-E, BFU-E, CFU-GM) in MethoCult H4434; type: cell-based; conditions: healthy donor BMNCs treated 48 hours, different concentrations
Description: FIG. 2 depicts the effect, or lack thereof, of ICA and ICT on hematopoiesis. BMNCs from three healthy donors were treated with ICA or ICT for 48 hours after which colony formation was assessed using MethoCult H4434 complete medium with cytokines. CFU-E, BFU-E and CFU-GM were indentified and counted using an inverted light microscope. Each bar represents the mean results of three individuals with duplicate plates. Results are expressed as means±SD.
Specifically, BMNCs from three healthy donors were treated with different concentrations of ICA or ICT for 48 hours after which colony formation was assessed using MethoCult H4434 complete medium with cytokines. The mixture was placed in 35-mm culture dishes (1×10^5 cells/each dish) and incubated at 37° C. in 5% CO2 for approximately 7-14 days. After incubation, colonies of CFU-E, BFU-E and CFU-GM were indentified and counted using an inverted light microscope. […] Although, these cells were obtained from spleens, it was also found ICA/ICT has a similar effect on MDSCs isolated from tumor tissue. Here, Gr1^+ cells were isolated from tumors of 4T1 tumor-bearing mice. […] Bars represent the relative percentage of MDSC as compared to DMSO treated cells measured by flow cytometry (FIG. 3A). The production of ROS (FIG. 3B) and NO (FIG. 3C) activity of purified MDSC from tumor tissue was also measured.

Gr-1+CD11b+ MDSCs = experiment: Circulating Gr-1+CD11b+ MDSC in spleens of 4T1 tumor-bearing mice (flow cytometry); type: in vivo, BALB/c mice; conditions: 100 mg/kg i.p. three times weekly, vehicle 50.28%
Description: FIG. 1 depicts the effects of ICA or ICT on the differentiation of MDSC. MDSC were isolated from spleens of 4T1 tumor-bearing mice. The maturation markers indicated were used to evaluate the differentiation and accumulation of MDSC in tumor bearing mice. Cell phenotype was evaluated by flow cytometry. One of the most striking features of ICA and ICT is their anti-tumorigenic ability in vivo. Seven days post-infection 1 cm diameter 4T1 tumors from 5 mice were established in BALB/c mice. Mice were treated with 100 mg/kg of ICA, ICT or vehicle (i.p.) three times weekly and tumor size (mean and SD) was monitored every 2 to 3 days. The percentages of double-positive Gr-1+CD11b′ MDSCs were determined for spleens of five mice per group. Cell phenotype was evaluated by flow cytometry. […] ICA or ICT on the differentiation of MDSC.

[2] = test system: CD16 (FcγRIII) in CD3− CD56+ NK cells; experiment: Surface expression of CD16 in NK cells (flow cytometry); type: cell-based; conditions: PBMC from healthy donors, 48 hours treatment
Description: FIG. 16 depicts the effect of ICA and ICT treatment on the surface expression of CD16 (FcγRIII) in NK cells. PBMC from healthy donors were treated with ICA/ICT or DMSO for 48 hours before analysis of CD16 expression by flow cytometry. NK cells were defined as CD3^− population and analyzed for the presence of CD16±CD56^+ cells as indicated.
An alternative strategy can be performed by measuring NK-mediated antibody dependent cytotoxicity (ADCC) on SIGLEC3^+ MDSC. […] This is particularly of interest, because these Fc receptors can be critical for the development of ADCC, a cytotoxic function of NK cells. This function can involve the activation of NK cells through the ligation of CD16 with an antibody already bound to a target cell which can trigger the target cell to undergo apoptosis through the release of cytotoxic granules containing perform and granzymes. Humanized anti-SIGLEC3/CD33 antibodies can be used to apply a strategy to deplete MDSC by NK-mediated ADCC.

[3] = target: GMP-specific recombinant bovine phosphodiesterase Type V (Bos taurus, UniProt Q28156); experiment: PDE5 phosphodiesterase inhibition, PDE-Glo system; type: biochemical
SIGLEC3 = experiment: SIGLEC3/CD33 expression on PBMC (Q-PCR, flow cytometry); type: cell-based, human; conditions: healthy PBMC, 48 hours; for SIGLEC3 mRNA and protein expression: 1 μM (Q-PCR)
Description: FIG. 4 depicts the down-regulation of the RNA expression of SIGLEC3 on PBMCs due to ICA and ICT. Healthy PBMC were cultured for 48 hours with 1 μM of DMSO, ICA or ICT and the expression of SIGLEC3 was measured by Q-PCR and analyzed by the AACt method. Error bars indicate SEM.
FIG. 5 depicts the effect of ICT on the expression of SIGLEC3 and SIGLEC5 on PBMC. PBMC from healthy donors were treated for 48 hours with DMSO or ICT and stained extra-cellularly with SIGLEC3-PE and SIGLEC5/14-APC antibodies (BD biosciences).
SIGLEC3 is highly expressed in MDSCs isolated from patients with AML (FIG. 6a). […] Specifically, healthy PBMC were cultured for 48 hours with 1 μM of DMSO, ICA or ICT and the expression of SIGLEC3 was measured by Q-PCR and analyzed by the MCt method. Also, PBMC from healthy donors were treated for 48 hours with DMSO or ICT and stained extra-cellularly with SIGLEC3-PE and SIGLEC5/14-APC antibodies (BD biosciences). S100A9 can ligate with SIGLEC3, denoting the presence of an uncharacterized pathway that could be linked to the identification of specific strategies targeting the regulation of MDSC activation.
Healthy PBMC were cultured for 48 hours with […] of the PDE5 inhibitor ICT and the expression of SIGLEC3 measured by the DDCt method. The experimental control is PBMC treated with DMSO and the internal control was GAPDH. Error bars indicate the SEM of three separate donors/experiments.

MDS BMNCs = experiment: Colony formation (CFU-GM, BFU-E) in MethoCult H4434; type: cell-based; conditions: 20 uM for 48 h, 14 days culture
Description: Bone marrow mononuclear cells (BMCs) from MDS patients were treated with 20 uM ICT for 48 h, and then seeded into MethoCult H4434 complete medium, the mixture is placed in 35-mm culture dishes (1×10^5 cells/each dish) and incubated at 37° C. in 5% CO2 for 14 days. After incubation, colonies of CFU-GM and BFU-E were identified and counted using an inverted light microscope, as shown in FIGS. 21A and 21B respectively. Each point represents the mean results of […], and each experimental point represents duplicate plates. Results are expressed as mean value±SD.

4T1 tumors = experiment: 4T1 tumor growth in vivo; design: species or system BALB/c mice; conditions: 100 mg/kg i.p. three times weekly
Description: One of the most striking features of ICA and ICT is their anti-tumorigenic ability in vivo. Seven days post-infection 1 cm diameter 4T1 tumors from 5 mice were established in BALB/c mice. Mice were treated with 100 mg/kg of ICA, ICT or vehicle (i.p.) three times weekly and tumor size (mean and SD) was monitored every 2 to 3 days. The percentages of double-positive Gr-1+CD11b′ MDSCs were determined for spleens of five mice per group. Cell phenotype was evaluated by flow cytometry. […] ICA or ICT on the differentiation of MDSC.

Row | SMILES | effect on hematopoiesis (colony formation) [1] | percent of circulating MDSC (Gr-1+CD11b+ MDSCs) [%] | expression level of Fc receptor (CD16, FcγRIII) in NK cells [2] | phosphodiesterase (enzymatic) activity of PDE5 [3] | SIGLEC3 mRNA and protein expression (SIGLEC3) | expression of CD33 on PBMC (SIGLEC3; 20 μM) | hematopoiesis of MDS BMNCs (CFU-GM, BFU-E colonies) (MDS BMNCs) | tumor growth in vivo (4T1 tumors)
1 | COc1ccc(-c2oc3c(CCC(C)(C)O)c(O)cc(O)c3c(=O)c2O)cc1 [ICT, 3,5,7-trihydroxy-4′-methoxy-8-(3-hydroxy-3-methylbutyl)-flavone] | do not affect hematopoiesis | 26.97 | increase the expression level of Fc receptor | block the phosphodiesterase activity of PDE5; also recorded: inhibit the enzymatic activity of PDE5 | down-regulating SIGLEC3 at both the mRNA and protein expression levels | down-regulate the expression of CD33 on PBMC | increase the hematopoiesis of MDS BMNCs | inhibit tumor growth in vivo
2 | COc1ccc(-c2oc3c(CC=C(C)C)c(O[C@@H]4O[C@H](CO)[C@@H](O)[C@H](O)[C@H]4O)cc(O)c3c(=O)c2O[C@@H]2O[C@@H](C)[C@H](O)[C@@H](O)[C@H]2O)cc1 [ICA, Icariin] | do not affect hematopoiesis | 33.35 | increase the expression level of Fc receptor | block the phosphodiesterase activity of PDE5; also recorded: inhibit the enzymatic activity of PDE5 | down-regulating SIGLEC3 at both the mRNA and protein expression levels |  | increase the hematopoiesis of MDS BMNCs | inhibit tumor growth in vivo
